{
  "source": "paper PMC5062570",
  "about": "(Nature Communications, 2016)",
  "key": {"CatE": {"biological_target": "T1, CatE (Homo sapiens, UniProt P14091)", "T1 construct": "purchased Creative BioMart CTSE-255H", "T1 sequence (P14091 54-396)": "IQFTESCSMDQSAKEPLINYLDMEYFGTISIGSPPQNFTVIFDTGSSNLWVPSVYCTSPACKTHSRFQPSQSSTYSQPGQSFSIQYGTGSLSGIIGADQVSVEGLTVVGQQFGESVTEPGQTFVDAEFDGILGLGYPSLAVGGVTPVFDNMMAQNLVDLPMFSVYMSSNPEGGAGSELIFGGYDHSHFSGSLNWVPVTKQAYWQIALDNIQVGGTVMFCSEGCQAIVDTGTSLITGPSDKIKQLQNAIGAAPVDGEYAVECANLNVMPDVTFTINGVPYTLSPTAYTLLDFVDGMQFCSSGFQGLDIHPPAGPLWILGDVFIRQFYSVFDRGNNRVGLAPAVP", "assay": "CatE purified enzyme fluorescence polarization assay", "assay_type": "biochemical", "experimental": "Purified enzyme inhibition of BACE1, BACE2, CatD and CatE was determined using fluorescence polarization (FP) assays. Briefly, purified enzymes were treated with test compounds (1% DMSO, 37 °C) in the presence of synthetic peptide substrates (150 nM) in 30 μl total volume of NaOAc buffer (100 mM, pH 4.5, 0.0001% Tween-20) in a 384-well plate. After incubation, reactions were stopped and substrate captured by the addition of 1.5 μM streptavidin, and FP measured with an EnVision plate reader (PerkinElmer, excitation 485 nm, emission 530 nm). […] BACE2 activity was assessed with 0.5 nM recombinant BACE2 (R&D Systems 4097-AS) and the same synthetic substrate used for BACE1, with a 1 h incubation time. […] CatE activity was assessed with 1.0 nM recombinant CatE (Creative BioMart CTSE-255H) and the same synthetic substrate used for CatD, with a 1.5 h incubation time."}, "purified CatD": {"biological_target": "T2, purified CatD (Homo sapiens, UniProt P07339)", "T2 construct": "final maturation into a non-covalently associated heavy chain and light chain; purchased Sigma C8696; host or cells: human liver", "T2 sequence (P07339 65-162 limits assumed)": "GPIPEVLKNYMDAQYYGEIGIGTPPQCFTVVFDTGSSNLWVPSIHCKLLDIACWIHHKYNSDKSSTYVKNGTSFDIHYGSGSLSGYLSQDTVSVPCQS", "T2 sequence (P07339 169-412 limits assumed)": "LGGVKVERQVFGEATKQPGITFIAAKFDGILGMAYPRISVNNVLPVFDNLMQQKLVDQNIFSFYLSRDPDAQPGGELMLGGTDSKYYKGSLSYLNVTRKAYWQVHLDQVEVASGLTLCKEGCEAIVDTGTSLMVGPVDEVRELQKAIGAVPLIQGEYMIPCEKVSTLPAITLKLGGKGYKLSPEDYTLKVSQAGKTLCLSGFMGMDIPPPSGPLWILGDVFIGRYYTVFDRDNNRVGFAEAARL", "assay": "PF-7802 labelling of purified CatD (probe-based competition)", "assay_type": "binding", "conditions": "250 nM purified human mature CatD, NaOAc pH 4.5, PF-7802 100 nM", "method": "Purified CatD (Sigma C8696, isolated from human liver) or proCatD (R&D systems 1014-AS) was reconstituted and diluted to 250 nM in NaOAc buffer (50 mM, pH 4.5, 0.0001% Tween-20). […] Samples were analysed by in-gel fluorescence scanning and western blot with an α-CatD antibody (R&D Systems AF-1014) as described above for CatD knockdown."}, "[1]": {"tested_on": "mRNA levels (CTSD, CTSB, CTSF, BACE1, GBA, TFEB) in ARPE-19 cells", "assay": "qRT-PCR of inhibitor-treated ARPE-19 cells", "assay_type": "cell-based, human", "conditions": "7 days"}, "BACE2": {"tested_on": "BACE2", "conditions": "purified aspartyl proteases; not previously disclosed"}},
  "note": "“Also recorded” adds a separate entry of the source.",
  "data": [
    {"smiles": "Cc1cc([C@H]2C[C@H]3[C@@H](C)SC(N)=N[C@@]3(c3ccc(F)cc3F)CO2)on1", "note": "[PF-9283]", "values": [
      {"measurement": "IC50", "setting": "CatE", "result": 24, "unit": "µM"},
      {"measurement": "Competition of PF-7802 labelling of purified mature CatD", "setting": "purified CatD", "result": "competed by pretreatment with PF-9283 in a concentration-dependent manner; also recorded: concentration-dependently competed"},
      {"measurement": "mRNA level changes (qRT-PCR)", "setting": "[1]", "result": "did not display changes in mRNA levels; also recorded: no changes in CatD mRNA levels"},
      {"measurement": "Fold selectivity for BACE1 over BACE2", "setting": "BACE2", "result": 1.9, "unit": "fold"}
    ]}
  ]
}
